From patent US9243036B2, “Anti-microbial activity of synthetic peptides” (THE UNITED STATES OF AMERICA, as represented by the …, priority 2012, dated 2016)
“Also recorded” adds a separate entry of the source. Residues, ends and D or L forms follow the SMILES beside them.

Assays:
Assay type in all cases: cell-based
S. aureus [1] = test: Cytoplasmic membrane depolarization assay (diSC3-5); details: EC5 64 μg/ml; after 45 min
Protocol: Membrane depolarization activity (Δψ) of the peptide was determined with intact E. coli and P. aeruginosa cells and the membrane potential-sensitive fluorescent dye, 3,3′-dipropylthiadicarbocyanine Iodide (diSC (3)5) (Invitrogen, Oregon), according to described methods (Sims, P. J., et al (1974) Biochemistry 13, 3315-3330). Briefly, bacterial cells of mid-logarithmic phase were harvested by centrifugation and washed twice with HEPES buffer (5 mM HEPES, 5 mM glucose, pH 7.6). The cells were suspended in the same buffer to an OD of 0.05. The cell suspension was incubated with […] diSC (3)5 until maximal uptake of the dye. 100 mM KCl was added to equilibrate the cytoplasmic and external potassium ion concentration of peptide, and fluorescence was monitored at an excitation wavelength of 622 nm and an emission wavelength of 670 nm. […]
Cytoplasmic depolarization assay(Δψ) was performed using the membrane potential sensitive dye 3,3′-dipropylthiadicarbocyanine iodide (diSC3-5) (Zang, L. et al., (2001) J. Biol. Chem. 276, 35714-35722). This dye can cross the outer membrane of the bacterial cell and become concentrated in the cytoplasmic membrane and thereby it self-quenches its own fluorescence. Upon addition of a membrane-permeabilizing agent the dye is released with consequent increase in the fluorescence. […]

P. aeruginosa [2] = test: 2 h incubation of mid-logarithmic cultures with peptide, CFU on NA plates; details: peptide 12.5, 25 and 50 μg/ml, inoculum 10^5 CFU/ml
Protocol: (§1) Mid-logarithmic phase cultures of bacteria with an inoculum of 10^5 CFU/ml were incubated with peptide concentrations ranging from 0 to 50 μg/ml in a shaker incubator for 2 h following which the samples were plated on NA agar plates and CFU determined.

E. coli [3] = test: as above; details: peptide 12.5, 25 and 50 μg/ml, inoculum 10^5 CFU/ml
Protocol: as §1

P. aeruginosa [4] = test: ATP inhibition (BACTITER-GLO); details: EC5 at lowest concentration of 3.125 μg/ml
Protocol: (§2) The effects of EC5 on ATP inhibition as a measure of metabolic activity of E. coli and P. aeruginosa cells was determined by using BACTITER-GLO™ assay kit (Promega) according to the manufacturer's protocol. The luminescent signal correlates with the number of viable microbial cells based on the amount of ATP present after the addition of different concentrations of the peptide. Polymyxin B was included as a positive control.
(§3) ATP inhibition as a measurement of microbial viability was measured using BacTiter-Glo kit ([…]). Intracellular ATP levels of E. coli and P. aeruginosa were examined after the addition of different concentrations of EC5 (FIG. 9D). ATP inhibition began 5 min after the addition of EC5 at lowest concentration of 3.125 μg/ml which was slightly lower than the MIC of 8 μg/ml for E. coli and P. aeruginosa.

E. coli [5] = test: ATP inhibition (BACTITER-GLO); details: EC5 at lowest concentration of 3.125 μg/ml
Protocol: as §2, §3

P. aeruginosa [6] = test: Membrane permeability by PI and SYTO9 uptake (LIVE/DEAD BACLIGHT); details: SYTO9 and PI staining
Protocol: (§4) The effects of EC5 on the membrane integrity of E. coli and P. aeruginosa cells were assessed using the LIVE/DEAD BACLIGHT™ kit (Invitrogen, Oregon) according to the manufacturer's protocol. Membrane integrity of the cells after the addition of different concentrations of peptide EC5 was measured using fluorescence micro plate reader (BioTek Instruments, Winooski, Vt.). Experiments were done in triplicates. PMB was used as a positive control.
(§5) The membrane permeabilizing activity of EC5 was also studied using the SYTO9 and PI staining method. SYTO9 stain labels both live and dead bacteria when alone, but propidium iodide stains only cells with damaged membranes, reducing the level of green fluorescent SYTO9 when both the dyes are present. […] The ratio of green versus red fluorescence can be calculated as a measure of live bacteria. […] Polymyxin B, an AMP with a net charge of +5 with membrane permeabilizing activity was used as positive control.

E. coli [7] = test: as above; details: SYTO9 and PI staining
Protocol: as §4, §5

K pneumoniae = test: Anti-bacterial activity in spiked platelets; details: 2 h
Protocol: (§6) The anti-bacterial activity of the peptide in the presence of homologous plasma and platelets were assessed. Platelet Concentrates (PCs) in bags were obtained and stored at room temperature as described earlier (Mohan, K. V. et al., (2010) Transfusion 50, 166-173). Plasma was isolated from the PC bag by collecting 25 ml of PCs and subjecting the sample to a low speed centrifugation step to separate PLT-rich plasma from plasma. For assays log phase cultures of bacteria grown in Luria-Bertani (LB) broth were centrifuged at 3000×g and suspended in 1×PBS pH7.4. Bacterial titers were estimated by measuring the optical density (OD) and microscopy. Approximately 10^5 CFU/ml of each bacterial strain was spiked into 0.1 ml of plasma or platelets and incubated with peptide at concentrations ranging from 50 to 0 μg/ml. Incubation was carried out at room temperature for 2 h on a shaker. At the end of 2-h exposure period, a fixed volume of the suspension was plated on NA plates, and incubating at 37° C. for 18 to 24 h. Bactericidal activity was measured by log-reduction by viable bacteria.

S. aureus [8] = test: Anti-bacterial activity in spiked platelets; details: even at high concentrations
Protocol: as §6

P. aeruginosa [9] = test: Anti-bacterial activity in spiked platelets; details: EC5 25 and 12.5 μg/ml; 2 h
Protocol: as §6

B. cereus = test: Anti-bacterial activity in spiked platelets; details: even at high concentrations
Protocol: as §6

S. epidermidis = test: Anti-bacterial activity in spiked platelets; details: even at high concentrations
Protocol: as §6

E. coli [10] = test: Anti-bacterial activity in spiked platelets; details: 2 h
Protocol: as §6

## CC[C@H](C)[C@H](NC(=O)[C@H](CCCCN)NC(=O)[C@H](CCCNC(=N)N)NC(=O)[C@H](Cc1ccccc1)NC(=O)[C@H](CC(C)C)NC(=O)[C@H](CC(C)C)NC(=O)[C@@H](N)CCCNC(=N)N)C(=O)N[C@@H](CCCNC(=N)N)C(=O)N[C@@H](CCCNC(=N)N)C(=O)N[C@@H](CC(C)C)C(=O)N[C@@H](CCCCN)C(=O)N[C@@H](CCCNC(=N)N)C(=O)O [EC5, RLLFRKIRRLKR] (H-RLLFRKIRRLKR-OH; N-terminus and C-terminus assumed)
S. aureus [1]
  release of diSC3-5 from S. aureus: no trace of release
P. aeruginosa [2]
  reduction of P. aeruginosa: 5 log10 CFU/ml
E. coli [3]
  reduction of E. coli: 5 log10 CFU/ml
P. aeruginosa [4]
  time at which ATP inhibition began: 5 min
E. coli [5]
  time at which ATP inhibition began: 5 min
P. aeruginosa [6]
  concentration showing maximum permeability of cells: 12.5 µg/mL
E. coli [7]
  concentration showing maximum permeability of cells: 6.25 µg/mL
K pneumoniae; EC5 12.5 μg/ml
  reduction of K pneumoniae in platelets: 1 log10CFU/m
K pneumoniae; EC5 25 μg/ml
  reduction of K pneumoniae in platelets: 1.5 log10CFU/m
K pneumoniae; EC5 50 μg/ml
  reduction of K pneumoniae in platelets: 2.5 log10CFU/m
S. aureus [8]
  reduction of S. aureus in platelets: No significant reduction
P. aeruginosa [9]
  reduction of P. aeruginosa in platelets: 4 log10 CFU/ml
B. cereus
  reduction of B. cereus in platelets: No significant reduction
S. epidermidis
  reduction of S. epidermidis in platelets: No significant reduction
E. coli [10]; EC5 12.5 μg/ml
  reduction of E. coli in platelets: 4.5 log10 CFU/ml
E. coli [10]; EC5 50 and 25 μg/ml
  E. coli colonies in platelets: no detectable E. coli colonies; also recorded: complete inhibition
